Results reported in ChEMBL document CHEMBL1201862, “PubChem BioAssay data set” (2004).
Calls of active or inactive are those of the source.

Legend:
[1] = inhibitors of intracellular T. cruzi replication, confirmation, NIH3T3 host cells, beta-gal luminescence (AID 2044); assay type: functional, cell-based;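 also: intracellular parasites grown in NIH/3T3 mouse fibroblasts as host cells; luminescent beta-galactosidase reporter signal from transgenic T. cruzi replicating inside host cells; inhibitors lower the luminescence signal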
[2] = cytotoxicity toward NIH3T3 fibroblasts, dose response, counter-screen, cell-based, ATP luminescence, mouse fibroblasts (AID 2010); assay type: functional;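 also: cells exposed to compound for about 90 hours before reading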
[3] = cells; assay type: functional, cell-based
[4] = target: T1, Trace amine-associated receptor 1 (Homo sapiens, UniProt Q96RJ0); assay: Fluorescence-based cell-based high throughput dose response assay to identify agonists of the human trace amine associated receptor 1 (TAAR1).; assay type: functional
T1 sequence (Q96RJ0 whole entry): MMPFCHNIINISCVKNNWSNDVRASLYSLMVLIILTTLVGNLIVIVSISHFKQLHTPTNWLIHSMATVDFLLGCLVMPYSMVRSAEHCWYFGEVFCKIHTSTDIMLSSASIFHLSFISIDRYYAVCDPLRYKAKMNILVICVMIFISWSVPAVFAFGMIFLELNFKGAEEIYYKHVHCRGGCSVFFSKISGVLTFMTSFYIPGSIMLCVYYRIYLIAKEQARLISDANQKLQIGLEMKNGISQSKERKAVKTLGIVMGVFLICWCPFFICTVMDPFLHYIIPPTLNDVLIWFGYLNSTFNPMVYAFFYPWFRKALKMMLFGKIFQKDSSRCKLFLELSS

[5] = target: T1, Trace amine-associated receptor 1; assay: Counterscreen for agonists of the human trace amine associated receptor 1 (hTAAR1): Fluorescence-based cell-based high throughput dose response assay to identify hTAAR1 agonist that also desensitize TAAR1 receptor response.; assay type: functional
[6] = cells; assay type: functional, cell-based; remark: listed apart in the source
[7] = cells
[8] = target: T2, Tyrosine-protein phosphatase non-receptor type 7 (Homo sapiens, UniProt P35236); assay: inhibitors of human HePTP phosphatase, […], biochemical, absorbance, leukemia target (AID 521); assay type: functional
T2 sequence (P35236 whole entry): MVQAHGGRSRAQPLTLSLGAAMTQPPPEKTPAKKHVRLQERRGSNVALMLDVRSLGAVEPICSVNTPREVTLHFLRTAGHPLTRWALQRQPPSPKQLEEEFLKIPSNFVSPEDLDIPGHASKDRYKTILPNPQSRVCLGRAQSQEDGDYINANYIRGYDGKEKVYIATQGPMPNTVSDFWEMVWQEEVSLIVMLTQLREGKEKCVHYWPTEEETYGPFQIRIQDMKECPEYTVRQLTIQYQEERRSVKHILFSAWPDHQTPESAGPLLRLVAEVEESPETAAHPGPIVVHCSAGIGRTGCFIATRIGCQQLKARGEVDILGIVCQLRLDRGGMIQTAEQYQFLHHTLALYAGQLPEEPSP

[9] = cells; assay type: functional, cell-based; remark: listed apart in the source
[10] = cells; assay type: functional, cell-based; remark: listed apart in the source
[11] = target: Mitogen-activated protein kinase 10 (Homo sapiens, UniProt P53779); assay: Dose response biochemical screening assay for inhibitors of c-Jun N-Terminal Kinase 3 (JNK3). [Related pubchem assays: 746 ]
Mitogen-activated protein kinase 10, sequence (P53779 whole entry): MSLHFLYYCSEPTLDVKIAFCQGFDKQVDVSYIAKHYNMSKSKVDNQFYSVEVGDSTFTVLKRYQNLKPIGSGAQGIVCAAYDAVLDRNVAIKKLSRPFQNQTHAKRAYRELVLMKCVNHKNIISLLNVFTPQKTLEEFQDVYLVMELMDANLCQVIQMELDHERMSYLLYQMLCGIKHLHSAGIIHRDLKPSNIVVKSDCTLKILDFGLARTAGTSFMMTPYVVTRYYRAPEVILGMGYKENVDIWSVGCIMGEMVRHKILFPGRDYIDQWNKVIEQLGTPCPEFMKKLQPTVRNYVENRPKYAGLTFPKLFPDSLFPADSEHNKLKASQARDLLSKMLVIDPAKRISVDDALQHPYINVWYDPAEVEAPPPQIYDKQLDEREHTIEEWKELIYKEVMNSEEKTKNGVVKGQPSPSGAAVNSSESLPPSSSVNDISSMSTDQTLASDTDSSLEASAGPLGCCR

[12] = system: BJ; assay: cytotoxicity toward BJ-TERT fibroblasts, dose response, cell-based, RAS-independent, luminescence (AID 1933); assay type: functional; settings: Homo sapiens
[13] = system: Vero; assay: host cell cytotoxicity of antiviral hits, dose response, cytotoxicity control for West Nile virus antiviral project, secondary assay (AID 1650); assay type: functional; settings: Chlorocebus sabaeus
[14] = system: BJ; assay: cells; assay type: functional, cell-based; settings: Homo sapiens
[15] = system: BJ; assay: cytotoxicity toward BJ-TERT-LT-ST fibroblasts, dose response, cell-based, RAS-independent, luminescence (AID 1935); assay type: functional; settings: Homo sapiens;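 also: BJ fibroblasts immortalized with TERT plus LT and ST oncogenes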
[16] = cytotoxicity toward DRD oncogenic fibroblasts, dose response, cell-based, non-viral oncogenic, luminescence (AID 1934); assay type: functional; settings: Homo sapiens
[17] = system: Vero; assay: cells; assay type: functional, cell-based; settings: Chlorocebus sabaeus
[18] = system: Vero; assay: cells; assay type: functional; settings: Chlorocebus sabaeus
[19] = Luminescence Cell-Based Dose Response to Identify Activators of 5'UTR Stem-Loop Driven Prion Protein mRNA Translation in H4-C Neuroglioblastoma Cells. [Related pubchem assays: 1829 (Project Summary), 1814 (Primary HTS)]; assay type: functional
[20] = Luminescence Cell-Based Dose Response HTS to Identify Activators of Luciferase Translation or Activity in H4 […] Cells. [Related pubchem assays: 1829 (Project Summary), 1814 (Primary HTS)]; assay type: functional
[21] = Luminescence Cell-Based Dose Response to Identify Activators of Luciferase Translation or Activity in H4-C Neuroglioblastoma Cells. [Related pubchem assays: 1829 (Project Summary), 1814 (Primary HTS)]; assay type: functional
[22] = Luminescence Cell-Based Dose Confirmation to Identify Activators of 5'UTR Stem-Loop Driven Alpha-Synuclein mRNA Translation in H4 Neuroglioblastoma Cells. [Related pubchem assays: 1829 (Project Summary), 1814 (Primary HTS)]; assay type: functional

With N=C(N)N/N=C/c1ccccc1 the EC50 [1] was < 100 nM (active), the EC50 [2] was > 60 µM (not active) and the IC50 [3] was > 29.9 µM (inactive). For the same molecule, the EC50 [4] was > 3.32 µM (active), the IC50 [5] was 1.67 µM (active) and the EC50 [6] was > 29.9 µM (inactive). For the same molecule, the EC50 [7] was 112 nM (active).

With CC1(C)N(O)CC(c2cccs2)=[N+]1[O-] the IC50 [8] was > 100 µM (not active).

In the case of c1ccc(-n2ncc3c(NCc4ccco4)ncnc32)cc1, the EC50 [9] is reported as > 350 µM (not active), the EC50 [10] is reported as > 350 µM (not active) and the IC50 [11] is reported as 60.9 µM (not active).

For C[C@H]1O[C@@H](OC2CC[C@]3(C=O)[C@H]4CC[C@]5(C)[C@@H](C6=CC(=O)OC6)CC[C@]5(O)[C@@H]4CC[C@]3(O)C2)CC2OC(C)(C)OC21 (stereo not given in full), the EC50 [12] was 1.01 µM (active), the CC50 [13] was < 0.039 µM (active) and the EC50 [14] was 1.37 µM (inconclusive). For the same molecule, the EC50 [15] was 1.28 µM (inconclusive), the EC50 [16] was 1.14 µM (active) and the IC50 [17] was < 0.05 µM (active). The CC50 [18] was 0.1 µM (active).

In the case of NC(=O)C1=C[C@H](C2CCCCC2)C[C@H](OCc2ccc(CO)cc2)O1, the EC50 [19] is reported as 326 nM (active), the EC50 [20] is reported as < 100 nM (inconclusive) and the EC50 [21] is reported as > 12 µM (not active). For the same molecule, the EC50 [22] was 558 nM (active) and the IC50 [17] was > 25 µM (active).

For O=C(CCN1C(=O)/C(=C\c2cccc(Br)c2)SC1=S)N1CCOCC1, the CC50 [13] was 31.3 µM (active) and the CC50 [18] was > 25 µM (active).
